According to PubChem BioAssay (NCI):
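These data come from cells grown in 96-well plates and exposed to compound for 48 hours at five concentrations. GI50 = concentration required for 50% inhibition of growth. At the TGI there is no net growth.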

Columns and labels:
Test in all cases: NCI-60 cell line screen, 48 h
UO-31 renal = tested on: UO-31 renal
M14 melanoma = tested on: M14 melanoma
UACC-257 melanoma = tested on: UACC-257 melanoma
HOP-62 NSCLC = tested on: HOP-62 NSCLC
SF-295 CNS = tested on: SF-295 CNS
HT29 colon = tested on: HT29 colon
786-0 renal = tested on: 786-0 renal
SNB-75 CNS = tested on: SNB-75 CNS
NCI-H226 lung = tested on: NCI-H226 lung
A498 renal = tested on: A498 renal

SMILES | GI50 (UO-31 renal) | TGI (UO-31 renal) | GI50 (M14 melanoma) | TGI (M14 melanoma) | GI50 (UACC-257 melanoma) | TGI (UACC-257 melanoma) | GI50 (HOP-62 NSCLC) | TGI (HOP-62 NSCLC) | GI50 (SF-295 CNS) | TGI (SF-295 CNS) | GI50 (HT29 colon) | TGI (HT29 colon) | GI50 (786-0 renal) | TGI (786-0 renal) | GI50 (SNB-75 CNS) | TGI (SNB-75 CNS) | GI50 (NCI-H226 lung) | TGI (NCI-H226 lung) | TGI (A498 renal) | GI50 (A498 renal)
N#C[Se]CCN1C(=O)c2ccccc2C1=O | 2.09 µM | 7.92 µM | 1.21 µM | 3.8 µM | 2.51 µM | 11 µM | 2.17 µM | 6.45 µM | 1.65 µM | 3.7 µM | 2.84 µM | 8.29 µM | 2.1 µM | 5.09 µM | 2.09 µM | 5.56 µM | 1.6 µM | 3.82 µM | – | –
O=S(=O)(O)C(c1ccccc1)C(O)c1ccccc1 (stereo not drawn) | – | > 100 µM | – | > 100 µM | – | > 100 µM | – | > 100 µM | – | > 100 µM | – | > 100 µM | – | > 100 µM | – | > 100 µM | – | > 100 µM | > 100 µM | –
NS(=O)(=O)c1cc2c(cc1Cl)NCNS2(=O)=O | – | > 100 µM | – | > 100 µM | – | > 100 µM | – | > 100 µM | – | > 100 µM | – | > 100 µM | – | > 100 µM | – | > 100 µM | – | > 100 µM | – | –
N#CC1(CCCCl)CCCCC1 | – | > 100 µM | – | > 100 µM | – | > 100 µM | – | – | – | > 100 µM | – | > 100 µM | – | > 100 µM | – | > 100 µM | – | – | > 100 µM | –
CC(=O)O[C@H]1C[C@@H]2[C@@]3(C)CC[C@H]4C[C@@]4(C)[C@@H]3CC[C@@]2(C)C2=CCC3=C(COC3=O)[C@]21C | 32.1 µM | > 100 µM | 22.6 µM | 47.3 µM | 34.2 µM | > 100 µM | 17.5 µM | 36.4 µM | 19.6 µM | 40.9 µM | 31.6 µM | > 100 µM | 18.6 µM | 37.7 µM | 23.1 µM | 51.2 µM | 16 µM | 32.6 µM | – | –
OC[C@H]1C[C@](O)(c2ccc(F)cc2)[C@@H](c2ccc(F)cc2)O1 | > 100 µM | > 100 µM | – | – | > 100 µM | > 100 µM | > 100 µM | > 100 µM | > 100 µM | > 100 µM | > 100 µM | > 100 µM | > 100 µM | > 100 µM | > 100 µM | > 100 µM | > 100 µM | > 100 µM | > 100 µM | > 100 µM
O=C(NO)c1ccc(CNc2cccc3nc(C4CC4)n(-c4ccccc4)c(=O)c23)cc1 | 1.45 µM | 2.96 µM | 1.91 µM | 4.14 µM | 1.82 µM | 4.76 µM | 1.89 µM | 4.72 µM | – | – | 2.16 µM | 5.62 µM | 2.18 µM | 5.2 µM | 1.78 µM | 5.93 µM | 2.93 µM | 15 µM | 4.03 µM | 1.87 µM
COc1ccc([C@@H]2[C@@H](Oc3ccccc3)C(=O)N2c2cc(OC)c(OC)c(OC)c2)cc1F | 0.562 µM | > 100 µM | 0.0818 µM | 1.72 µM | – | – | 0.0811 µM | > 100 µM | 0.0785 µM | > 100 µM | 0.211 µM | 0.684 µM | 0.198 µM | > 100 µM | 0.0567 µM | > 100 µM | 0.99 µM | > 100 µM | 0.0983 µM | 0.0238 µM
O=C(O)c1cn(C2CC2)c2cc(N3CCN(C(=O)N(c4ccccc4)c4nc(-c5ccccc5)cs4)CC3)c(F)cc2c1=O | – | – | 0.437 µM | > 100 µM | – | – | 0.462 µM | > 45.4 µM | 0.305 µM | 3.04 µM | – | – | 0.417 µM | > 100 µM | 0.334 µM | 2.8 µM | – | – | 0.688 µM | 0.028 µM
CC(C)CCCC(C)C1CCC2C3CC([N+](=O)[O-])=C4CC(O)CCC4(C)C3CCC12C (stereo not drawn) | – | – | – | 28.8 µM | – | 37.5 µM | – | 42.3 µM | – | 30 µM | – | 55.5 µM | – | 33 µM | – | 41.5 µM | – | – | 40.6 µM | –
C=CCN(CC=C)Cc1c[nH]c2ccccc12 | 35.2 µM | > 100 µM | – | – | 8.63 µM | 28 µM | – | – | 21 µM | > 100 µM | 41.9 µM | > 100 µM | 4.33 µM | 14.7 µM | > 100 µM | > 100 µM | – | – | – | –
O=C1c2ccccc2-c2c1c1c(O)cccc1n2Cc1ccccc1 | 21.8 µM | > 100 µM | 26.7 µM | > 100 µM | 17.7 µM | 68.5 µM | 12.1 µM | 29.8 µM | 6.12 µM | 18.4 µM | 38.2 µM | > 100 µM | 15.6 µM | 31.9 µM | – | – | > 100 µM | > 100 µM | 25 µM | 6.24 µM
c1cc(OCCCCCOc2cccc(-c3nc4ccccc4[nH]3)c2)cc(-c2nc3ccccc3[nH]2)c1 | – | – | 2.57 µM | > 100 µM | 2.87 µM | 7.85 µM | 3.58 µM | > 100 µM | 1.65 µM | 6.57 µM | 2.87 µM | > 100 µM | 2.68 µM | > 100 µM | 3.4 µM | > 100 µM | 1.92 µM | > 100 µM | 7.91 µM | 2.61 µM
N#CC1=C(N)Oc2c(ccc3ccccc23)C1c1cc2ccccc2n2nnnc12 (stereo not drawn) | 0.725 µM | > 100 µM | 0.948 µM | > 100 µM | 9.09 µM | > 100 µM | 0.812 µM | > 100 µM | 0.832 µM | > 100 µM | 3 µM | > 100 µM | 1.28 µM | > 100 µM | – | – | 3.08 µM | > 100 µM | > 100 µM | 0.783 µM
CN(C)c1ccc(/C=C2\CCc3ccccc3C2=O)cc1Br | – | > 100 µM | – | > 100 µM | – | > 100 µM | – | > 100 µM | – | > 100 µM | – | > 100 µM | – | > 100 µM | – | > 100 µM | – | > 100 µM | – | –
CN(C)[C@@H]1C(=O)C(C(=O)NCc2nc3[nH]cnc(=S)c3[nH]2)=C(O)[C@@]2(O)C(=O)C3=C(O)c4c(O)cccc4[C@@](C)(O)[C@H]3C[C@@H]12 | 3.69 µM | > 100 µM | 1.05 µM | > 100 µM | > 100 µM | > 100 µM | 1.4 µM | > 100 µM | > 100 µM | > 100 µM | 8.45 µM | > 100 µM | 3.78 µM | > 100 µM | 1.79 µM | > 100 µM | – | – | > 100 µM | > 100 µM
CN(C)CCCC1(c2ccc(F)cc2)OCc2cc(-c3csc4ccccc34)ccc21 (stereo not drawn) | 1.25 µM | 2.62 µM | 1.66 µM | 3.36 µM | 1.78 µM | 3.49 µM | 1.57 µM | 3.31 µM | 1.64 µM | 3.04 µM | 1.55 µM | 3.46 µM | 1.84 µM | 3.63 µM | 1.35 µM | 2.8 µM | 1.8 µM | 3.52 µM | – | –
C/C(=C\c1ccccc1)C(O)C(=O)c1nc2ccc(Cl)cc2[nH]c1=O (stereo not drawn) | – | > 100 µM | – | > 100 µM | – | > 100 µM | – | > 100 µM | – | > 100 µM | – | > 100 µM | – | > 100 µM | – | – | – | > 100 µM | > 100 µM | –
C#CCCCCCC(=O)N[C@H]1C=C[C@@H]2/C=C(C)/C=C/[C@@H](C)[C@H]([C@H](C)[C@H](O)[C@@H](C)NC(C)=O)OC(=O)/C=C/C=C(C)\C=C\[C@]2(C)C1 | < 0.004 µM | 8.95 µM | – | – | < 0.004 µM | 0.0324 µM | 0.0107 µM | > 40 µM | < 0.004 µM | 0.0182 µM | < 0.004 µM | 25.1 µM | < 0.004 µM | > 40 µM | 0.0127 µM | > 40 µM | 0.00478 µM | 6.05 µM | 0.0383 µM | 0.0046 µM
CC(C)(C)C1CC[C@H]2c3c([nH]c4ccccc34)[C@H]3C(=O)N(c4ccc(F)cc4)C(=O)[C@H]3[C@H]2C1 (stereo partly drawn) | – | 29.7 µM | – | 38.4 µM | – | 54.2 µM | – | 30.8 µM | – | 28.3 µM | – | – | – | 23.5 µM | – | 23 µM | – | 35.3 µM | 45.7 µM | –
COc1ccc2cc3n(c(=O)c2c1)CCc1c-3cc(OC)c(OC)c1OC | – | > 100 µM | – | > 100 µM | – | > 100 µM | – | > 100 µM | – | > 100 µM | – | > 100 µM | – | > 100 µM | – | 98.6 µM | – | > 100 µM | – | –
CCCCC(C(=O)C(=O)Nc1ccccc1CC)C(=O)C(C)C (stereo not drawn) | – | > 100 µM | – | > 100 µM | – | > 100 µM | – | – | – | > 100 µM | – | > 100 µM | – | > 100 µM | – | – | – | > 100 µM | > 100 µM | –
CN(C)c1ccc(/C=c2/sc3nc(=O)c(-c4ccccc4NC(=O)C(F)(F)F)nn3c2=O)cc1 | – | > 100 µM | – | > 100 µM | – | – | – | > 100 µM | – | > 100 µM | – | > 100 µM | – | > 100 µM | – | > 100 µM | – | > 100 µM | – | –
O=C1c2ccccc2N1C(=O)c1ccccc1[N+](=O)[O-] | – | > 100 µM | – | > 100 µM | – | > 100 µM | – | > 100 µM | – | – | – | > 100 µM | – | > 100 µM | – | > 100 µM | – | > 100 µM | > 100 µM | –
